Measurements taken from the NIST ThermoML archive (doi:10.1016/j.jct.2014.07.010).

Assay: osmotic coefficient (dimensionless); mn = molality of the nth substance listed, in mol/kg
Conditions: 298.15 K, Liquid, isopiestic method

O=S(=O)([O-])[O-].[K+].[K+] [potassium sulfate] + O
Conditions | osmotic coefficient
m1 = 0.4526 | 0.693
m1 = 0.4667 | 0.692
m1 = 0.4747 | 0.691
m1 = 0.5108 | 0.686
m1 = 0.5495 | 0.682
m1 = 0.5708 | 0.68
m1 = 0.6064 | 0.677
m1 = 0.6321 | 0.675
m1 = 0.6366 | 0.673
m1 = 0.6529 | 0.673
